In patent publication US6875451B2, “Compositions and methods for the treatment of primary and metastatic neoplastic diseases using arsenic compounds” (PolaRx Biopharmaceuticals Inc., priority 1997, dated 2005):

What was measured:
Assay type in all cases: cell-based
NCI-H226 = test: SRB growth assay, 6 days exposure, non-small cell lung cancer; details: NCI-H226, 6 days
Procedure: (§1) Arsenic trioxide (1 mg/ml, 10 mg/ampoule, manufactured by Taylor Pharmaceuticals, Decatur, Ill.) was tested at five concentrations each at 10-fold dilutions, i.e., 10^−5, 10^−6, 10^−7, 10^−8 and 10^−9 μg/ml.
(§2) The in vitro tests were performed by incubating the test cells in the presence of the indicated concentration of arsenic trioxide under standard culture conditions for a designated period of time, which is followed by a sulforhodamine B (SRB) protein assay to estimate cell viability or growth. The cell lines are organized into subpanels according to the origin of the cell lines, e.g., leukemia, breast cancer, etc. A description of the cell lines and method of testing is described in Monk et al. (1997, Anticancer Drug Des. 12:533-41) and Weinstein et al., (1997, Science 275:343-9), which are incorporated herein in their entirety.
(§3) The measurement of an effect is expressed in Percentage Growth (PG). The measured effect of the compound on a cell line is calculated according to one or the other of the following two expressions: If (Mean ODtest−Mean ODzero)≧0. then PG=100×(Mean ODtest−Mean ODzero)/(Mean ODctrl−Mean ODzero) If (Mean ODtest−Mean ODzero)<0. then PG=100×(Mean ODtest−Mean ODzero)/(Mean ODzero where: • Mean ODzero=the average of optical density measurements of SRB-derived color just before exposure of cells to the test compounds; • Mean ODtest=the average of optical density measurements of SRB-derived color after exposure of cells to the test compound for a designated period of time; and • Mean ODctrl=the average of optical density measurements of SRB-derived color after with no exposure of cells to the test compound for a designated period of time
(§4) The first two columns describe the subpanel (e.g., leukemia) and cell line (e.g., CCRF-CEM) involved. The next two columns list the Mean ODzero and Mean ODctrl; the next five columns list the Mean ODtest for each of five different concentrations. Each concentration is expressed as the log10 (molar or μg/ml). The next five columns list the calculated PGs for each concentration. The response parameters GI50, TGI and LC50 are interpolated values representing the concentrations at which the PG is +50, 0, and −50, respectively. Sometimes these response parameters cannot be obtained by interpolation. If, for instance, all of the PGs in a given row exceed +50, then none of the three parameters can be obtained by interpolation. In such a case, the value given for each response parameter is the highest concentration tested and is preceded by a “>” sign. This practice is extended similarly to the other possible situations where a response parameter cannot be obtained by interpolation.
(§5) In the first set, the cells from 56 different cancer cell lines were exposed to five concentrations of arsenic trioxide continuously for two days prior to performing the SRB assay. In the second set, the cells from 50 different cell lines (a subset of the first 56 cell lines, plus the renal cancer cell line 786-0) were exposed continuously for six days prior to the SRB assay.

EKVX = test: as above
Procedure: as §1, §2, §3, §4, §5

NCI-H522 = test: as above; details: NCI-H522, 6 days
Procedure: as §1, §2, §3, §4, §5

HOP-92 = test: as above; details: HOP-92, 6 days
Procedure: as §1, §2, §3, §4, §5

NCI-H460 = test: as above; details: NCI-H460, 6 days
Procedure: as §1, §2, §3, §4, §5

S12C = test: SRB growth assay, 6 days exposure, renal cancer
Procedure: as §1, §2, §3, §4, §5

CAKI-1 = test: SRB growth assay, 6 days exposure, renal cancer; details: CAKI-1, 6 days
Procedure: as §1, §2, §3, §4, §5

RXF 393 = test: SRB growth assay, 6 days exposure, renal cancer; details: RXF393, 6 days
Procedure: as §1, §2, §3, §4, §5

[1] = read-out: LC50 (the source's name)

arsenic trioxide
Mean Optical Densities (NCI-H226; Log 10 Concentration −4.9): 0.164 | Percent Growth (NCI-H226; Log 10 Concentration −4.9): 17% | Mean Optical Densities (NCI-H226; Log 10 Concentration −5.9): 0.348 | Percent Growth (NCI-H226; Log 10 Concentration −5.9): 63% | Mean Optical Densities (NCI-H226; Log 10 Concentration −6.9): 0.489 | Percent Growth (NCI-H226; Log 10 Concentration −6.9): 98% | Mean Optical Densities (NCI-H226; Log 10 Concentration −7.9): 0.458 | Percent Growth (NCI-H226; Log 10 Concentration −7.9): 90% | Mean Optical Densities (NCI-H226; Log 10 Concentration −8.9): 0.504 | Percent Growth (NCI-H226; Log 10 Concentration −8.9): 101% | CC50 (NCI-H226; [1]): > 12.6 µM | TGI (EKVX): 4.22E−06 | Mean Optical Densities (EKVX; Log 10 Concentration −4.9): 0.014 | Percent Growth (EKVX; Log 10 Concentration −4.9): −53% | Mean Optical Densities (EKVX; Log 10 Concentration −5.9): 0.414 | Percent Growth (EKVX; Log 10 Concentration −5.9): 59% | Mean Optical Densities (EKVX; Log 10 Concentration −6.9): 0.628 | Percent Growth (EKVX; Log 10 Concentration −6.9): 92% | Mean Optical Densities (EKVX; Log 10 Concentration −7.9): 0.601 | Percent Growth (EKVX; Log 10 Concentration −7.9): 88% | Mean Optical Densities (EKVX; Log 10 Concentration −8.9): 0.573 | Percent Growth (EKVX; Log 10 Concentration −8.9): 83% | Mean Optical Densities (NCI-H522; Log 10 Concentration −4.9): 0.028 | Percent Growth (NCI-H522; Log 10 Concentration −4.9): −84% | Mean Optical Densities (NCI-H522; Log 10 Concentration −5.9): 0.128 | Percent Growth (NCI-H522; Log 10 Concentration −5.9): −27% | Mean Optical Densities (NCI-H522; Log 10 Concentration −6.9): 1.191 | Percent Growth (NCI-H522; Log 10 Concentration −6.9): 97% | Mean Optical Densities (NCI-H522; Log 10 Concentration −7.9): 0.535 | Percent Growth (NCI-H522; Log 10 Concentration −7.9): 34% | Mean Optical Densities (NCI-H522; Log 10 Concentration −8.9): 1.269 | Percent Growth (NCI-H522; Log 10 Concentration −8.9): 104% | Mean Optical Densities (HOP-92; Log 10 Concentration −4.9): 0.079 | Percent Growth (HOP-92; Log 10 Concentration −4.9): −31% | Mean Optical Densities (HOP-92; Log 10 Concentration −5.9): 1.229 | Percent Growth (HOP-92; Log 10 Concentration −5.9): 95% | Mean Optical Densities (HOP-92; Log 10 Concentration −6.9): 1.319 | Percent Growth (HOP-92; Log 10 Concentration −6.9): 102% | Mean Optical Densities (HOP-92; Log 10 Concentration −7.9): 1.834 | Percent Growth (HOP-92; Log 10 Concentration −7.9): 146% | Mean Optical Densities (HOP-92; Log 10 Concentration −8.9): 1.455 | Percent Growth (HOP-92; Log 10 Concentration −8.9): 114% | CC50 (HOP-92; [1]): > 12.6 µM | Mean Optical Densities (NCI-H460; Log 10 Concentration −4.9): 0.062 | Percent Growth (NCI-H460; Log 10 Concentration −4.9): 1% | Mean Optical Densities (NCI-H460; Log 10 Concentration −5.9): 2.535 | Percent Growth (NCI-H460; Log 10 Concentration −5.9): 89% | Mean Optical Densities (NCI-H460; Log 10 Concentration −6.9): 2.792 | Percent Growth (NCI-H460; Log 10 Concentration −6.9): 98% | Mean Optical Densities (NCI-H460; Log 10 Concentration −7.9): 2.806 | Percent Growth (NCI-H460; Log 10 Concentration −7.9): 99% | Mean Optical Densities (NCI-H460; Log 10 Concentration −8.9): 2.797 | Percent Growth (NCI-H460; Log 10 Concentration −8.9): 99% | CC50 (NCI-H460; [1]): > 12.6 µM | LC50 (concentration killing 50% of cells) (S12C): > 12.6 µM | TGI (S12C): 5.67E−06 | Mean Optical Densities (S12C; Log 10 Concentration −4.9): 0.013 | Percent Growth (S12C; Log 10 Concentration −4.9): −46% | Mean Optical Densities (S12C; Log 10 Concentration −5.9): 0.829 | Percent Growth (S12C; Log 10 Concentration −5.9): 86% | Mean Optical Densities (S12C; Log 10 Concentration −6.9): 1.113 | Percent Growth (S12C; Log 10 Concentration −6.9): 117% | Mean Optical Densities (S12C; Log 10 Concentration −7.9): 1.141 | Percent Growth (S12C; Log 10 Concentration −7.9): 120% | Mean Optical Densities (S12C; Log 10 Concentration −8.9): 0.882 | Percent Growth (S12C; Log 10 Concentration −8.9): 92% | TGI (CAKI-1): 2.43E−06 | Mean Optical Densities (CAKI-1; Log 10 Concentration −4.9): 0.004 | Percent Growth (CAKI-1; Log 10 Concentration −4.9): −88% | Mean Optical Densities (CAKI-1; Log 10 Concentration −5.9): 0.491 | Percent Growth (CAKI-1; Log 10 Concentration −5.9): 35% | Mean Optical Densities (CAKI-1; Log 10 Concentration −6.9): 1.573 | Percent Growth (CAKI-1; Log 10 Concentration −6.9): 117% | Mean Optical Densities (CAKI-1; Log 10 Concentration −7.9): 1.725 | Percent Growth (CAKI-1; Log 10 Concentration −7.9): 128% | Mean Optical Densities (CAKI-1; Log 10 Concentration −8.9): 1.254 | Percent Growth (CAKI-1; Log 10 Concentration −8.9): 93% | TGI (RXF 393): 2.96E−06 | Mean Optical Densities (RXF 393; Log 10 Concentration −4.9): 0.017 | Percent Growth (RXF 393; Log 10 Concentration −4.9): −91% | Mean Optical Densities (RXF 393; Log 10 Concentration −5.9): 0.909 | Percent Growth (RXF 393; Log 10 Concentration −5.9): 54% | Mean Optical Densities (RXF 393; Log 10 Concentration −6.9): 1.727 | Percent Growth (RXF 393; Log 10 Concentration −6.9): 116% | Mean Optical Densities (RXF 393; Log 10 Concentration −7.9): 1.301 | Percent Growth (RXF 393; Log 10 Concentration −7.9): 84% | Mean Optical Densities (RXF 393; Log 10 Concentration −8.9): 1.327 | Percent Growth (RXF 393; Log 10 Concentration −8.9): 86%
